This note sets out measurements from US20220245798A1, “TISSUE STEM CELL COUNTING […] USES THEREOF” (Asymmetrex LLC, priority 2021, published 2022).

In the series the test system is HSCs in CD34+-selected normal human bone marrow cells. The experiment in a line: PSCK-RIFS tissue stem cell counting and cell kinetics determination, serial culture of BM-CD34+ cells with stem cell-active agents. The class given is cell-based. The following applies: for Committed Progenitor Cells CC Time / Stem Cells Asym CC Time / Stem Cells SSR Rate, RS / Stem Cells Sym CC Time / Stem Cells Initial Fraction: BM-CD34+ serial culture, agent supplemented at all times; for Committed Progenitor Cells CC Time / Stem Cells Asym CC Time / Stem Cells SSR Rate, RS / Stem Cells Sym CC Time: mean of n=5; for Stem Cells Initial Fraction: mean of n=5 PSCK-RIFS determinations. An excerpt:
Strain WI-38 pre-senescent human lung cells were purchased from the American Type Culture Collection (Manassas, Va., USA; ATCC #CCL-75; passage 15). Expanded human liver stem cell strain SACK-XS 12(3) was purchased from Kerafast (Boston, Mass., USA; #EJS002). CD34+-selected normal human bone marrow cells were purchased from the ATCC (#PCS-800-012). CD34+-selected human umbilical cord blood cells were purchased from STEMCELL Technologies, Inc. (Cat#70008; Cambridge, Mass.).
Expanded human liver stem cell strain SACK-XS 12(3) cells were cultured in the supplier's recommended culture medium without inclusion of xanthosine. CD34+-selected normal human bone marrow cells were cultured in StemSpan™ SFEM II medium (STEMCELL Technologies, Inc., Cambridge, Mass., USA; #09655) supplemented with StemSpan™ CD34+ Expansion Supplement (STEMCELL Technologies, Inc., #02691). SACK-XS 12(3) serial cultures were initiated in 6-well plates with 325,000 viable cells. CD34+ cell serial cultures were initiated as 24-well suspension cultures with 65,000 viable cells. For both cell types, ⅓ of total cells were transferred to a new culture well every 96±4 hour interval. Tested agents were supplemented at all times during the culture period.
Based on the determined stem cell symmetric self-renewal frequency (RS), in the early studies presented herein a correction was applied to account for this effect. The correction is determined by the following Equation 1:
NSo corrected=NS1st interval/(RSe^kt+RA−RDS) (Equation 1)
In Equation 1, NS1st interval=NS peak value determined from the initial interval of PSCK; t=the time to the first interval NS peak in the respective simulation; k=ln 2/GTS, the mean generation time for symmetrically self-renewing stem cells; RS, RA, and RDS are mean cell kinetics factors determined by the originating PSCK-RIFS analysis (See EXAMPLE 4). The mean of 10 independent PSCK NS simulations was used for correction. Equation 1 was applied to determine the initial stem cell fraction whenever a significant RS value was found.
The simulation confidence level was estimated from the root mean squared error of the comparison of simulated cumulative population doubling (CPD) data to experimental CPD data. Student's t-test (2-tailed) was used to calculate p-values for confidence for cell kinetics factors determined by the PSCK-RIFS software (See also EXAMPLE 4) with respect to 0.0 and their 95% confidence intervals. Student's t-test (2-tailed) was also used to calculate p-values for confidence for differences in the value of cell kinetics factors derived under different culture conditions.
FIGS. 1 and 11 outline the application of the PSCK-RIFS software. A tissue cell preparation of interest is first counted (including viable cell determination; NC in Table 5) and used to initiate serial cultures, typically in triplicate.
At an experimenter defined interval (SPLI in Table 5), cultures are counted—including viable cell count—and a constant fraction of the cells or number of the cells is transferred to a new culture dish of the same type (FIG. 11). The PSCK software is designed to be versatile for accommodating different formats for the culture time period and/or the number of cells transferred. The total cell count data are transformed into plots of cumulative population doublings (CPD); and the viable cell fraction is used to estimate the dead cell fractions for transient cells (RDT in Table 5) and terminal cells (RDTM in Table 5), which are similarly very abundant during most of the culture period.
FIG. 1 depicts the various inputs that are used by the PSCK software to calculate CPD curve simulations for the period defined by the experimental CPD data. Using the cellular model illustrated in FIG. 1, the software inputs measured values (“m” superscripted in FIG. 1) and discovered factors (“d” superscripted in FIG. 1) obtained from the RIFS software. An important aspect of the PSCK-RIFS method is that there is no underlying mathematical algorithm. […]

Each structure is given as a SMILES string.

Consider `O=c1[nH]c(=O)c2ncn([C@@H]3O[C@H](CO)[C@@H](O)[C@H]3O)c2[nH]1` [Xanthosine, xanthosine], for which the “Committed Progenitor Cells CC Time” value is listed as 8.2 h (NS); the “Stem Cells Asym CC Time” value is 6.6 h (NS); the “Stem Cells SSR Rate, RS” value is listed as 3.2 × 10^−3 (0.037); the “Stem Cells Sym CC Time” value is 9.4 h (NS). In addition, the “Stem Cells Initial Fraction” value is 3.5 × 10^−3 (0.001). The “change in stem cell fraction of supplemented cultures” value (BM-CD34+ cultures) is on record as “increases”. Also, the “increase in HSC number” value (after only 4 days of culture) amounted to 10 fold. The “RS, rate of symmetric self-renewal, of HSC divisions” value (increase from undetectable, p=0.037) turned out to be 0.32%.

For the compound `O=NN(CCCl)C(=O)NCCCl` [BCNU, bis-chloroethylnitrosourea], the “Committed Progenitor Cells CC Time” value is recorded as 6.4 h (NS); the “Stem Cells Asym CC Time” value is reported as 7.6 (NS) h; the “Stem Cells SSR Rate, RS” value is recorded as 0.0 (NS); the “Stem Cells Sym CC Time” value was 8.2 h (NS). The “Stem Cells Initial Fraction” value was 1.3 × 10^−4 (0.001). Besides, under “within the first four days of culture”, the “change in determined HSC number” value is “decrease”.
